{"source": "patent US11766423B2", "about": "(THE JOHNS HOPKINS UNIVERSITY, priority 2018, dated 2023)", "key": {"[1]": {"conditions": "cited from earlier work"}, "nSMase2": {"tested_on": "nSMase2", "conditions": "literature value; read-out: nSMase2 IC50 of prototype inhibitor; cited from earlier work"}, "GFAP-GFP mice [2]": {"tested_on": "GFAP-GFP mice", "assay": "Mouse model of brain inflammation, striatal IL-1β injection in GFAP-GFP mice"}, "Rat primary astrocytes": {"tested_on": "Rat primary astrocytes", "assay": "GFAP immunofluorescence, activation of serum-deprived astrocytes", "type": "cell-based", "conditions": "10 μM, 2 h; for GFAP levels without serum starvation: complete medium; for astrocyte activation (GFAP) in response to serum starvation: serum deprivation", "protocol": "Media was collected after 2 h incubation and centrifuged at 2700 g for 15 minutes at 4° C. Supernatant was collected and the number of extracellular vesicles (EVs) was quantified using ZetaView Nanoparticle Tracker. The mean concentration of EVs/mL (±SEM) was calculated from 4 replicate experiments. […] GFP-containing exosomes released from astrocytes in the brain were quantified in plasma of mice 2.5 h following compound administration. Data are mean±SD, n=5-10 mice per condition. *, p<0.05 compared to saline control; ###, p<0.001 compared to IL1-β group; ***, p<0.001 compared to saline group. […] Astrocytes grown in complete medium were used as no treatment control. Cells were fixed and stained with anti-GFAP antibody (1:500, Sigma). Fluorescence intensity was measured using Image J. (FIG. 5D) Quantitation of fluorescence in (FIG. 5C). Bar graph represents background corrected mean fluorescence intensity measured from 100 astrocytes per condition. Error bars represent standard error of mean. One-way ANOVA followed by Tukey's posthoc test was performed;\nCells were fixed and immunofluorescence labeling for GFAP was performed."}, "primary astrocytes": {"tested_on": "primary astrocytes", "assay": "Inhibition of exosome (EV) release from primary astrocytes", "type": "cell-based, mouse", "conditions": "2 h; for effect on exosome (EV) release in vitro, in words: primary astrocytes, FBS withdrawal, 0.03-30 μM"}, "alkaline phosphatase": {"biological_target": "alkaline phosphatase", "assay": "Counter assay without nSMase2, phosphorylcholine as substrate", "type": "biochemical", "conditions": "phosphorylcholine 2 μM, no nSMase2, no SM; read-out: IC50 alkaline phosphatase in counter screen", "protocol": "Following assay validation, 365,000 compounds were screened from the Molecular Libraries Small Molecule Repository (MLSMR) and 2816 compounds were screened from the NCGC pharmaceutical collection (NPC) library for human nSMase2 inhibitors. Compounds were screened at 4 concentrations: 1.1 μM, 11 μM, 57 μM and 114 μM. Cambinol (full does response in each plate) was used as positive control. After eliminating promiscuous compounds, 1990 compounds that had maximal inhibitory responses >50% at the highest concentration tested and robust curve response classes (CRC) (Inglese, et al., 2006) were selected for re-testing in the same human nSMase2 activity assay and counter screen. […] There were a total of 220 compounds for follow-up confirmation (FIG. 2A)."}, "[3]": {"conditions": "in 19 of 759 bioassays; cited from earlier work"}, "[4]": {"assay": "Metabolic stability in human liver microsomes", "type": "in vitro ADME", "protocol": "(§1) One potential liability when using chemical probes in vivo is lack of metabolic stability which structurally inactivates the compound before it can reach its molecular target. […] Percent of drug remaining over time was determined by liquid chromatography-tandem mass spectrometry analysis (LC/MS/MS).\n(§2) Metabolic stability assay was conducted in mouse or human liver microsomes as has been described previously (Rais, et al., 2016) with minor modifications. Briefly, the reaction was carried out using potassium phosphate buffer (100 mM, pH 7.4), in the presence of an NADPH regenerating system (compound final concentration was 1 μM; 0.2 mg/mL microsomes). Compound disappearance was monitored over time using a liquid chromatography and tandem mass spectrometry (LC/MS/MS) method. Chromatographic analysis was performed using an Accela ultra high-performance system consisting of an analytical pump and an autosampler coupled with a TSQ Vantage mass spectrometer (Thermo Fisher Scientific Inc., Waltham, Mass.). […] The mobile phase consisted of 0.1% formic acid in acetonitrile and 0.1% formic acid in water with gradient elution."}, "[5]": {"assay": "Metabolic stability in mouse liver microsomes", "type": "in vitro ADME", "protocol": "as §1, §2"}, "human nSMase2": {"biological_target": "T1, human nSMase2 (Homo sapiens, UniProt Q9NY59)", "T1 sequence (Q9NY59 1-655)": "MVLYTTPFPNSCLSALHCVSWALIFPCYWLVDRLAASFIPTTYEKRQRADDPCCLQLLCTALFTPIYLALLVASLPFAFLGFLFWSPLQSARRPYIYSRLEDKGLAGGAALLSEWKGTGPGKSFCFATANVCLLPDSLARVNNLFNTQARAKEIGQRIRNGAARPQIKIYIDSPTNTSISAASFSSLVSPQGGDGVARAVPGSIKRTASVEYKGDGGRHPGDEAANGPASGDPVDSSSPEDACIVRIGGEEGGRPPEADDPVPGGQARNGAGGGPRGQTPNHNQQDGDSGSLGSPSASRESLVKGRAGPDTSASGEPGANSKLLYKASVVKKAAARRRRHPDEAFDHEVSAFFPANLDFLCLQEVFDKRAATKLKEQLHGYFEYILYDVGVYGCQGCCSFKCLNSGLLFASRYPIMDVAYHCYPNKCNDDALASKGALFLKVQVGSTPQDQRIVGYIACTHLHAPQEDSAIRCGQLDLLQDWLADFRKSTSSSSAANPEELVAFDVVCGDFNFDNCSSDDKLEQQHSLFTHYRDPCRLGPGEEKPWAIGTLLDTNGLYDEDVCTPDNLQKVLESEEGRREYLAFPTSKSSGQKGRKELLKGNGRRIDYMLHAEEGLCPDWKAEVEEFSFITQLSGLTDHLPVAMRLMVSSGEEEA", "assay": "Fluorescence-based (Amplex Red) human nSMase2 activity assay", "conditions": "rate vs SM concentration at several DPTIP concentrations"}, "acid sphingomyelinase": {"biological_target": "T2, acid sphingomyelinase (Homo sapiens, UniProt P17405)", "T2 sequence (P17405 47-631)": "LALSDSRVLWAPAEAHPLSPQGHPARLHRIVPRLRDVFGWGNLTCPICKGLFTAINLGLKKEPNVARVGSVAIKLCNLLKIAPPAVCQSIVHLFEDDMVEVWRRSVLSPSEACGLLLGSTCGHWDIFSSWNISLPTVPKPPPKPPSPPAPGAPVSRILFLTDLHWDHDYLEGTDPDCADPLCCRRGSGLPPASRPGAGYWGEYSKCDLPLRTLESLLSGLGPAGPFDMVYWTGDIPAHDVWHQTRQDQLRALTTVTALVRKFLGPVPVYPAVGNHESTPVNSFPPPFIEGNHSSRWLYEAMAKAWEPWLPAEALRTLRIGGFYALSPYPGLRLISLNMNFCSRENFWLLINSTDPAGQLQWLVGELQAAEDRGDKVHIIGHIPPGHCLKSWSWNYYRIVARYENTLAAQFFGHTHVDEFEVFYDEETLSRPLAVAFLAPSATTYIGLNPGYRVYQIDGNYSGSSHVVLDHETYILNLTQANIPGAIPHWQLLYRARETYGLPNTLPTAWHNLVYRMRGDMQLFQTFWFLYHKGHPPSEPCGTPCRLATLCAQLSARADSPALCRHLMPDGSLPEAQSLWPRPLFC", "assay": "Acid sphingomyelinase selectivity study, standard protocol", "type": "biochemical", "conditions": "results not shown"}, "GFAP-GFP mice [6]": {"tested_on": "GFAP-GFP mice", "conditions": "co-injection with IL-1β, Dickens et al. 2017; cited from earlier work"}, "[7]": {"conditions": "10 mg/kg IP 0.5 h before IL-1β, 2 h post IL-1β"}, "[8]": {"conditions": "10 mg/kg IP, liver qRT-PCR 2 h post IL-1β"}}, "note": "Several values for one entry are separate records, joined by “and”; a condition that tells them apart may be missing. Identical values can stand only once. Entries after “also recorded” stand apart in the source; their conditions may differ."}
{"compound": "O=c1[nH]c(=S)[nH]c(-c2ccccc2)c1Cc1c(O)ccc2ccccc12", "note": "[Cambinol]", "values": [{"measurement": "in vivo pharmacokinetic profile, in words", "setting": "[1]", "value": "poor in vivo pharmacokinetic profile"}, {"measurement": "IC50", "setting": "nSMase2", "value": "[…]"}]}
{"compound": "COc1cc(OC)cc(-c2nc(-c3cccs3)c(-c3ccccc3)[nH]2)c1", "note": "[DPT, 2-(3,5-dimethoxyphenyl)-5-phenyl-4-(thiophen-2-yl)-1H-imidazole]", "values": [{"measurement": "effect on IL-1β-induced EV release in vivo, in words", "setting": "GFAP-GFP mice [2]; [7]", "value": "no significant difference"}, {"measurement": "effect on IL-1β-induced EV release in vivo, in words", "setting": "GFAP-GFP mice [2]; 10 mg/kg IP 0.5 h before IL-1β, 2 h post IL-1β, listed as des-hydroxyl analog", "value": "no difference"}, {"measurement": "effect on IL-1β-induced EV release in vivo, in words", "setting": "GFAP-GFP mice [2]; 10 mg/kg IP 0.5 h before IL-1β, 2 h post IL-1β, listed as inactive analog", "value": "no statistically significant effect"}, {"measurement": "effect on IL-1β-induced upregulation of liver cytokines", "setting": "GFAP-GFP mice [2]; [8]", "value": "no effect"}, {"measurement": "effects on production of TNF-α and IL-6", "setting": "GFAP-GFP mice [2]; [8]", "value": "marginal and not statistically significant"}, {"measurement": "reduction in CCL2 production", "setting": "GFAP-GFP mice [2]; [8]", "value": "not statistically significant"}, {"measurement": "GFAP levels without serum starvation", "setting": "Rat primary astrocytes", "value": "did not change GFAP levels"}, {"measurement": "astrocyte activation (GFAP) in response to serum starvation", "setting": "Rat primary astrocytes", "value": "failed to prevent astrocyte activation"}, {"measurement": "effect on exosome (EV) release in vitro, in words", "setting": "primary astrocytes; listed as des hydroxyl inactive analog of DPTIP", "value": "did not inhibit"}, {"measurement": "effect on exosome (EV) release in vitro, in words", "setting": "primary astrocytes; listed as des-hydroxyl analog", "value": "no effect"}, {"measurement": "effect on exosome (EV) release in vitro, in words", "setting": "primary astrocytes; listed as inactive analog", "value": "no effect"}]}
{"compound": "COc1cc(-c2nc(-c3cccs3)c(-c3ccccc3)[nH]2)cc(OC)c1O", "note": "[DPTIP, 2,6-dimethoxy-4-(5-phenyl-4-thiophen-2-yl-1H-imidazol-2-yl)-phenol]", "values": [{"measurement": "IC50", "setting": "alkaline phosphatase", "value": "> 100", "unit": "µM"}, {"measurement": "weak activity observed in NCATS bioassays", "setting": "[3]", "value": "2 to 50", "unit": "µM"}, {"measurement": "effect on IL-1β-induced EV release in vivo, in words", "setting": "GFAP-GFP mice [2]; [7]", "value": "inhibitor of EV release; also recorded: inhibits exosome release"}, {"measurement": "reduction of IL-1β-induced astrocyte-derived (GFP+) EVs in plasma", "setting": "GFAP-GFP mice [2]; [7]", "value": "51±13% and 70%"}, {"measurement": "effect on IL-1β-induced upregulation of liver cytokines", "setting": "GFAP-GFP mice [2]; [8]", "value": "inhibited"}, {"measurement": "metabolic stability, in words", "setting": "[4]; human liver microsomes with NADPH", "value": "metabolically stable"}, {"measurement": "percent remaining", "setting": "[4]; human liver microsomes, NADPH, 1 h, 1 μM compound", "value": 100, "unit": "%"}, {"measurement": "metabolic stability, in words", "setting": "[5]; mouse liver microsomes with NADPH", "value": "metabolically stable"}, {"measurement": "percent remaining", "setting": "[5]; mouse liver microsomes, NADPH, 1 h, 1 μM compound", "value": 100, "unit": "%"}, {"measurement": "mode of inhibition with respect to sphingomyelin", "setting": "human nSMase2", "value": "noncompetitive inhibition; also recorded: non-competitive"}, {"measurement": "GFAP levels without serum starvation", "setting": "Rat primary astrocytes", "value": "did not change GFAP levels"}, {"measurement": "astrocyte activation (GFAP) in response to serum starvation", "setting": "Rat primary astrocytes", "value": "prevented astrocyte activation"}, {"measurement": "IC50", "setting": "acid sphingomyelinase", "value": "> 100", "unit": "µM"}, {"measurement": "EC50", "setting": "primary astrocytes; Mus musculus, Astrocyte, primary astrocytes activated by FBS withdrawal, 2 h treatment", "value": "~3", "unit": "µM"}, {"measurement": "effect on exosome (EV) release in vitro, in words", "setting": "primary astrocytes", "value": "inhibited exosome release from astrocytes in a dose dependent manner; also recorded: inhibitor of EV release; also recorded: inhibits exosome release"}]}
{"compound": "COc1cc(O)c(C(=O)O)c(-c2cc(O)c(O)cc2C)c1", "note": "[altenusin]", "values": [{"measurement": "neutrophil infiltration into brain parenchyma", "setting": "GFAP-GFP mice [6]", "value": "suppresses neutrophil infiltration"}]}
